Test results taken from ChEMBL document CHEMBL5360575, “Broad-spectrum coronavirus 3C-like protease peptidomimetic inhibitors effectively block SARS-CoV-2 replication in cells: Design, synthesis, biological evaluation, and X-ray structure determination” (Eur J Med Chem, 2023).

Assays:
BEAS-2B = test: Cytotoxicity against human BEAS-2B cells assessed as reduction in cell viability; format: toxicity, cell-based
[1] = biological target: T1, Replicase polyprotein 1ab (Severe acute respiratory syndrome coronavirus 2, UniProt P0DTD1); test: Inhibition of SARS-CoV-2 3CL protease expressed in Escherichia coli BL21(DE3) cells using DABCYL-KTSAVLQSGFRKM-EDANS as substrate preincubated for 30 mins followed by substrate addition and measured after 15 mins by FRET assay
[2] = Inhibition of MERS 3CL protease expressed in Escherichia coli BL21(DE3) cells using DABCYL-KTSAVLQSGFRKM-EDANS as substrate preincubated for 30 mins followed by substrate addition and measured after 30 mins by FRET assay; parameters: species or system Middle East respiratory syndrome-related coronavirus
SARS-CoV-2 [3] = test: microbe, parasite or virus in culture; conditions: Severe acute respiratory syndrome coronavirus 2, […], Vero C1008
SARS-CoV-2 [4] = test: microbe, parasite or virus in culture; conditions: Severe acute respiratory syndrome coronavirus 2, […], Vero C1008, 72 h
[5] = tested on: Middle East respiratory syndrome-related coronavirus; test: microbe, parasite or virus in culture; conditions: Vero C1008, 96 h
Human coronavirus 229E = test: microbe, parasite or virus in culture; conditions: BEAS-2B
[6] = Selectivity index, ratio of CC50 for human BEAS2B cells to EC50 for antiviral activity against HCoV229E infected in BEAS-2B cells; format: toxicity, cell-based; conditions: read-out: Ratio CC50/EC50
SARS-CoV-2 [7] = conditions: Severe acute respiratory syndrome coronavirus 2, […], Calu-3, 48 h
[8] = biological target: T1, Replicase polyprotein 1ab; test: Covalent binding affinity to SARS-CoV-2 3CL protease expressed in Escherichia coli BL21(DE3) cells after 30 mins by FRET assay
[9] = biological target: Replicase polyprotein 1ab (Severe acute respiratory syndrome coronavirus 2) (UniProt P0DTD1); conditions: dose 40.0 µM, time 30.0 min

| Structure (SMILES) | CC50 (BEAS-2B) [µM] | IC50 [1] [µM] | IC50 [2] [nM] | EC50 (SARS-CoV-2 [3]) [µM] | EC50 (SARS-CoV-2 [4]) [µM] | EC50 [5] [µM] | EC50 (Human coronavirus 229E) [µM] | selectivity ratio [6] | EC50 (SARS-CoV-2 [7]) [µM] | Ki [8] [µM] | ΔTm [9] [°C] |
| --- | --- | --- | --- | --- | --- | --- | --- | --- | --- | --- | --- |
| CC(C)C[C@H](NC(=O)OCc1ccccc1)C(=O)N[C@@H](C[C@@H]1CCNC1=O)C(O)S(=O)(=O)O (stereo not given in full) | > 100 |  |  |  |  |  |  |  |  |  |  |
| CC(C)[C@H](NC(=O)OC(C)(C)C)C(=O)N1C[C@@H](C)C[C@H]1C(=O)N[C@H](C=O)C[C@@H]1CCNC1=O |  | 0.00047 | 2.33 | 47.2 | 16.9 |  |  |  |  |  |  |
| CC(C)[C@H](NC(=O)OC(C)(C)C)C(=O)N1CCCC[C@H]1C(=O)N[C@H](C=O)C[C@@H]1CCNC1=O |  | 3.35 |  | > 100 | 5.83 |  |  |  |  |  |  |
| CO[C@H]1C[C@@H](C(=O)N[C@H](C=O)C[C@@H]2CCNC2=O)N(C(=O)[C@@H](NC(=O)OC(C)(C)C)C(C)C)C1 | 3.6 | 0.00024 | 0.007 | 23.6 | 8.7 | 0.58 | > 3.6 |  |  |  |  |
| CC(C)[C@H](NC(=O)OC(C)(C)C)C(=O)N1C[C@H](OC(C)(C)C)C[C@H]1C(=O)N[C@H](C=O)C[C@@H]1CCNC1=O | 48.2 | 0.0025 | 26 | 33.4 | 3.4 | 33.6 | > 48.2 |  |  |  |  |
| CC(C)C[C@H](NC(=O)[C@@H](NC(=O)OC(C)(C)C)C(C)C)C(=O)N[C@H](C=O)C[C@@H]1CCNC1=O | 70.5 | 0.0007 | 0.02 | 40.1 | 3.6 | 1.58 | 2.3 | > 30.1 |  |  |  |
| CC(C)[C@H](NC(=O)OC(C)(C)C)C(=O)N1CCC[C@H]1C(=O)N[C@H](C=O)C[C@@H]1CCNC1=O | 17.9 | 0.00623 | 0.02 | 22.5 | 16 | 4.56 | > 17.9 |  |  |  |  |
| CC(C)[C@H](NC(=O)OC(C)(C)C)C(=O)N1C[C@@H]2CCC[C@@H]2[C@H]1C(=O)N[C@H](C=O)C[C@@H]1CCNC1=O | 28.4 | 0.005 | 143 | 5.3 | 0.21 |  | 0.24 |  | 0.449 | 0.0032 | 4 |
| C[C@H](OC(C)(C)C)[C@H](NC(=O)OC(C)(C)C)C(=O)N1CCC[C@H]1C(=O)N[C@H](C=O)C[C@@H]1CCNC1=O |  | 0.0053 | 0.022 | 22.9 | 1.86 |  |  |  |  |  |  |
